Source: patent US4335249A, “Herbicidal diphenyl ethers, sulfides, sulfoxides and sulfones” (Rohm and Haas Company, priority 1976, dated 1982)

Tests used:
Type in all cases: in vivo
[1] = test system: velvetleaf (Abutilon theophrasti); assay: Preemergence herbicidal activity, velvetleaf; conditions: Abutilon theophrasti, pre-emergence, 336 h; Pre, 2 lb/A
Experimental: (§1) Using the procedure described below, compounds of the invention are evaluated for control of several of the following plant species:
(§2) The following est procedure is employed. Seeds of selected crops and weeds are planted in soil in flats. For preemergence tests, the flats are treated with the test compound immediately after the planting. For postemergence tests, the seeds are allowed to germinate, and after two weeks the flats are treated with the test compound. The compound to be evaluated is dissolved in acetone, diluted with water, and sprayed over the flats using a carrier volume equivalent to 50 gallons per acre at the rate of application (pounds per acre, lb/A.) specified in the tables. About two weeks after the application of the test compound, the state of growth of the plants is observed and the phytotoxic effect of the compound is evaluated. Tables III and IV give the average percent control achieved by test compounds in terms of the percent of the plants which are killed by the compounds.

[2] = test system: tomato (Lycopersicon esculentum); assay: Preemergence herbicidal activity, tomato; conditions: Solanum lycopersicum, pre-emergence, 336 h; Pre, 2 lb/A
Experimental: as §1, §2

[3] = test system: morningglory (Ipomoca spp.); assay: Postemergence herbicidal activity, morningglory; conditions: Ipomoea, post-emergence, 336 h, 2 lb/A
Experimental: as §1, §2

marigold (Tagetes spp.) [4] = assay: Preemergence herbicidal activity, marigold; conditions: pre-emergence, 336 h, 2 lb/A
Experimental: as §1, §2

[5] = test system: yellow nutsedge (Cyperus esculentus); assay: Preemergence herbicidal activity, yellow nutsedge; conditions: Cyperus, pre-emergence, 336 h, 2 lb/A
Experimental: as §1, §2

[6] = test system: cocklebur (Xanthium pensylvanicum); assay: Postemergence herbicidal activity, cocklebur; conditions: Xanthium strumarium, post-emergence, 336 h, 2 lb/A
Experimental: as §1, §2

wild oats (Avena fatua) [7] = assay: Preemergence herbicidal activity, wild oats; conditions: Avena fatua, pre-emergence, 336 h, Pre, 2 lb/A; read-out: % control, Wild oat
Experimental: as §1, §2

[8] = test system: barnyardgrass (Echinochloa crusgalli); assay: Postemergence herbicidal activity, barnyardgrass; conditions: Echinochloa crus-galli, post-emergence, 336 h; Post, 2 lb/A
Experimental: as §1
(§3) The following est procedure is employed. Seeds of selected crops and weeds are planted in soil in flats. For preemergence tests, the flats are treated with the test compound immediately after the planting. For postemergence tests, the seeds are allowed to germinate, and after two weeks the flats are treated with the test compound. The compound to be evaluated is dissolved in acetone, diluted with water, and sprayed over the flats using a carrier volume equivalent to 50 gallons per acre at the rate of application (pounds per acre, lb/A.) specified in the tables.

[9] = test system: morningglory (Ipomoca spp.); assay: Preemergence herbicidal activity, morningglory; conditions: Ipomoea, pre-emergence, 336 h, 2 lb/A
Experimental: as §1, §2

[10] = test system: downybrome (Bromus tectorum); assay: Preemergence herbicidal activity, downybrome; conditions: Bromus tectorum, pre-emergence, 336 h, Pre, 2 lb/A
Experimental: as §1, §2

foxtail (Setaria spp.) [11] = assay: Preemergence herbicidal activity, foxtail; conditions: Setaria, pre-emergence, 336 h; Pre, 2 lb/A
Experimental: as §1, §2

[12] = test system: barnyardgrass (Echinochloa crusgalli); assay: Preemergence herbicidal activity, barnyardgrass; conditions: Echinochloa crus-galli, pre-emergence, 336 h; Pre, 2 lb/A
Experimental: as §1, §3

marigold (Tagetes spp.) [13] = assay: Postemergence herbicidal activity, marigold; conditions: post-emergence, 336 h, 2 lb/A
Experimental: as §1, §2

wild oats (Avena fatua) [14] = assay: Postemergence herbicidal activity, wild oats; conditions: Avena fatua, post-emergence, 336 h, Post, 2 lb/A; read-out: % control, Wild oat
Experimental: as §1, §2

[15] = test system: velvetleaf (Abutilon theophrasti); assay: Postemergence herbicidal activity, velvetleaf; conditions: Abutilon theophrasti, post-emergence, 336 h, 2 lb/A
Experimental: as §1, §3

foxtail (Setaria spp.) [16] = assay: Postemergence herbicidal activity, foxtail; conditions: Setaria, post-emergence, 336 h, Post, 2 lb/A
Experimental: as §1, §2

[17] = test system: yellow nutsedge (Cyperus esculentus); assay: Postemergence herbicidal activity, yellow nutsedge; conditions: Cyperus, post-emergence, 336 h, 2 lb/A
Experimental: as §1, §2

[18] = test system: tomato (Lycopersicon esculentum); assay: Postemergence herbicidal activity, tomato; conditions: Solanum lycopersicum, post-emergence, 336 h, Post, 2 lb/A
Experimental: as §1, §2

[19] = test system: cocklebur (Xanthium pensylvanicum); assay: Preemergence herbicidal activity, cocklebur; conditions: Xanthium strumarium, pre-emergence, 336 h, 2 lb/A
Experimental: as §1, §2

[20] = test system: downybrome (Bromus tectorum); assay: Postemergence herbicidal activity, downybrome; conditions: Bromus tectorum, post-emergence, 336 h, Post, 2 lb/A
Experimental: as §1, §2

Row | Compound | pest or weed control at 2241.7 g/ha [1] [%] | pest or weed control at 2241.7 g/ha [2] [%] | pest or weed control at 2241.7 g/ha [3] [%] | pest or weed control at 2241.7 g/ha (marigold (Tagetes spp.) [4]) [%] | pest or weed control at 2241.7 g/ha [5] [%] | pest or weed control at 2241.7 g/ha [6] [%] | pest or weed control at 2241.7 g/ha (wild oats (Avena fatua) [7]) [%] | pest or weed control at 2241.7 g/ha [8] [%] | pest or weed control at 2241.7 g/ha [9] [%] | pest or weed control at 2241.7 g/ha [10] [%] | pest or weed control at 2241.7 g/ha (foxtail (Setaria spp.) [11]) [%] | pest or weed control at 2241.7 g/ha [12] [%] | pest or weed control at 2241.7 g/ha (marigold (Tagetes spp.) [13]) [%] | pest or weed control at 2241.7 g/ha (wild oats (Avena fatua) [14]) [%] | pest or weed control at 2241.7 g/ha [15] [%] | pest or weed control at 2241.7 g/ha (foxtail (Setaria spp.) [16]) [%] | pest or weed control at 2241.7 g/ha [17] [%] | pest or weed control at 2241.7 g/ha [18] [%] | pest or weed control at 2241.7 g/ha [19] [%] | pest or weed control at 2241.7 g/ha [20] [%]
1 | CCNC(=O)C(C)Oc1ccc(Oc2ccc(C(F)(F)F)cc2Cl)cc1 (centres unmarked) [Example 21] | 0 | 0 | 0 | 0 | 0 | 0 | 40 | 100 | 0 | 90 | 100 | 100 | 0 | 99 | 0 | 100 | 0 | 0 | 0 | 30
2 | CCCCCCOC(=O)C(C)Oc1ccc(Oc2ccc(C(F)(F)F)cc2Cl)cc1 (centres unmarked) [Example 36] | 0 | 0 | 0 | 0 | 0 | 0 | 0 | 100 | 0 | 0 | 100 | 100 | 0 | 100 | 0 | 100 | 0 | 0 | 0 | 60
3 | CC(C)COC(=O)C(C)Oc1ccc(Oc2ccc(C(F)(F)F)cc2Cl)cc1 (centres unmarked) [Example 33] | 0 | 0 | 0 | 0 | 0 | 0 | 90 | 100 | 0 | 90 | 100 | 99 | 0 | 100 | 0 | 100 | 0 | 0 | 0 | 100
4 | CC(Oc1ccc(Oc2ccc(C(F)(F)F)cc2Cl)cc1)C(N)=O (centres unmarked) [Example 18] | 0 | 0 | 0 | 0 | 0 | 0 | 0 | 99 | 0 | 95 | 100 | 100 | 0 | 95 | 0 | 99 | 0 | 0 | 0 | 40
